Laboratory results taken from patent US11999747B2, “Furoquinolinediones as inhibitors of TDP2” (THE UNITED STATES OF AMERICA, AS REPRESENTED BY THE …, priority 2015, dated 2024).

What was measured:
recombinant human TDP2 = biological target: T1, recombinant human TDP2 (Homo sapiens, UniProt O95551); experiment: Recombinant Tdp2 assay (gel-based, 18-mer ssDNA substrate); format: biochemical; details: recombinant human TDP2, 25 pM, 15 min, room temperature; read-out: REC TDP2
T1 sequence (O95551 1-362): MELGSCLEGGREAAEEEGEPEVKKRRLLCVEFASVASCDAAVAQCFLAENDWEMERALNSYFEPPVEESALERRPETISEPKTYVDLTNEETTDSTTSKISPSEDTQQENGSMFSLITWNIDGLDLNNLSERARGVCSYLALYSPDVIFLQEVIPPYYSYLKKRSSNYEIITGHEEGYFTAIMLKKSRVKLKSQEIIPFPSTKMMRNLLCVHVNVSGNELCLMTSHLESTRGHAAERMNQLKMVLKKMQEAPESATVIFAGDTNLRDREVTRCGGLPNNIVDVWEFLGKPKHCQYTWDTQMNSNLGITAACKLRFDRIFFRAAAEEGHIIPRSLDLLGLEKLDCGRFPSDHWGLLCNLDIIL
Protocol: TDP2 reactions were carried out as described previously (Example 52) with the following modifications. The 18-mer single-stranded oligonucleotide DNA substrate (α^32P-cordycepin-3′-labeled) was incubated at 1 nM with 25 pM recombinant human TDP2 in the absence or presence of inhibitor for 15 min at room temperature in a buffer containing 50 mM Tris-HCl, pH 7.5, 80 mM KCl, 5 mM MgCl2, 0.1 mM EDTA, 1 mM DTT, 40 μg/mL BSA, and 0.01% Tween 20. Reactions were terminated and treated similarly to WCE and recombinant TDP1 reactions (see Examples 52 and 53).
(§1) All compounds were prepared by the methods shown in Examples 1 to 50. Routine changes in starting materials and reaction conditions, readily apparent to those of skill in the art, were used to make the particular compounds disclosed in Table 1. […] A standard Tdp2 inhibition assay, such as the assay of Example 53, is used to determine the IC50's for the compounds. LC methods are given in the General Methods section.

human TDP2 (hTDP2) = biological target: T2, human TDP2 (hTDP2) (Homo sapiens, UniProt O95551); experiment: Whole cell extract Tdp2 assay (DT40 TDP1-/- cells complemented with human TDP2); format: biochemical; details: whole cell extract 4 μg/mL of DT40 cells expressing hTDP2, 15 min, room temperature; read-out: WCE hTDP2
T2 construct: expressed in transfected cells; host or cells: DT40 (chicken) TDP1-/- knockout cells complemented with human TDP2; whole cell extract
T2 sequence (O95551 1-362): T1 sequence (O95551 1-362)
Protocol: DT40 knockout cells (1×10^7) for Tdp1 (TDP1−/−) complemented with human TDP2 (hTDP2) were collected, washed, and centrifuged. Cell pellets were then lysed and stored similarly to hTDP1 extracts (see above). The 18-mer single-stranded oligonucleotide was incubated at 1 nM with 4 μg/mL of whole cell extracts in the absence or presence of inhibitor for 15 min at room temperature in the WCE buffer containing 50 mM Tris HCl, pH 7.5, 80 mM KCl, 5 mM MgCl2, 2 mM EDTA, 1 mM DTT, 40 μg/mL BSA, and 0.01% Tween-20. Reactions were terminated by the addition of 1 volume of gel loading buffer [99.5% (v/v) formamide, 5 mM EDTA, 0.01% (w/v) xylene cyanol, and 0.01% (w/v) bromophenol blue]. Samples were then treated and run similarly to the hTDP1 whole cell extract (Example 51).
as §1

IC50 (recombinant human TDP2) | IC50 (human TDP2 (hTDP2)) | SMILES
12 to 37 µM | 1 to 12 µM | Cc1oc2c(c1C(=O)Oc1ccccc1O)C(=O)c1ncccc1C2=O [Compound 13]
1 to 12 µM | 1 to 12 µM | Cc1oc2c(c1C(=O)Oc1cccnc1)C(=O)c1ncccc1C2=O [Compound 28]
